The target of test [1] is Toll-like receptor 4 (Homo sapiens, UniProt O00206). The experiment in a line: Inhibition of TLR4 (unknown origin) by sandwich ELISA method. On the technique in general: An ELISA detects its analyte on a solid surface through an enzyme-linked reagent.
Test [2] relates to Synovial cell. The experiment in a line: Antiinflammatory activity in rat synovial cells assessed as decrease in LPS-induced MyD88 protein expression at 1 uM by DAPI staining based immunofluorescence microscopic analysis. It is filed as functional.
In test [3] the test system is Synovial cell. Nature of the test: Induction of apoptosis in rat synovial cells assessed as increase in caspase-3 expression at 1 uM in presence of LPS by DAPI staining based immunofluorescence microscopic analysis. In kind it is functional.
In test [4] the test system is Synovial cell. The experiment in a line: Induction of apoptosis in rat synovial cells assessed as green coloured positive apoptotic cells with nuclear pyknosis and chromatin condensation at 1 uM in presence of LPS by TUNEL staining based microscopic analysis. It is filed as functional.
The subject of test [5] is Synovial cell. The experiment in a line: Antiinflammatory activity in LPS-stimulated rat synovial cells assessed as increase in IkappaB protein expression at 1 uM by DAPI staining based immunofluorescence microscopic analysis. It is filed as functional.
In test [6] the test system is Synovial cell. The experiment in a line: Antiinflammatory activity in rat synovial cells assessed as decrease in LPS-induced TLR4 protein expression at 1 uM by DAPI staining based immunofluorescence microscopic analysis. It is filed as functional.
The subject of test [7] is Synovial cell. The experiment in a line: Antiinflammatory activity in rat synovial cells assessed as downregulation of LPS-induced IL-1 beta production at 1 uM measured by ELISA. In kind it is functional, cell-based.
Test [8] concerns Synovial cell. The experiment in a line: Antiinflammatory activity in rat synovial cells assessed as downregulation of LPS-induced IL-6 production at 1 uM measured by ELISA. It is filed as functional, cell-based.
For test [9], the system named is Synovial cell. Nature of the test: Inhibition of LPS-induced cytomorphological changes in rat synovial cells assessed as reduction in refractive ability with irregular spindle or round shaped cell body at 1 uM. It is filed as functional, cell-based.
Test [10] has as its system Synovial cell. Nature of the test: Antiinflammatory activity in rat synovial cells assessed as decrease in LPS-induced NF-kappaB protein expression at 1 uM by DAPI staining based immunofluorescence microscopic analysis. In kind it is functional.
Test [11] has as its system Synovial cell. Nature of the test: Antiinflammatory activity in rat synovial cells assessed as downregulation of LPS-induced TNF-alpha production at 1 uM measured by ELISA. It is filed as functional, cell-based.
Test [12] has as its system Synovial cell. The experiment in a line: Inhibition of LPS-induced abnormal proliferation in rat synovial cells assessed as reduction in cell number at 1 uM. It is filed as functional, cell-based.

The structures appear in SMILES notation. Active and inactive are the calls of the source. The rule behind the calls is not given here.

Chain of Toll-like receptor 4 (O00206 whole entry): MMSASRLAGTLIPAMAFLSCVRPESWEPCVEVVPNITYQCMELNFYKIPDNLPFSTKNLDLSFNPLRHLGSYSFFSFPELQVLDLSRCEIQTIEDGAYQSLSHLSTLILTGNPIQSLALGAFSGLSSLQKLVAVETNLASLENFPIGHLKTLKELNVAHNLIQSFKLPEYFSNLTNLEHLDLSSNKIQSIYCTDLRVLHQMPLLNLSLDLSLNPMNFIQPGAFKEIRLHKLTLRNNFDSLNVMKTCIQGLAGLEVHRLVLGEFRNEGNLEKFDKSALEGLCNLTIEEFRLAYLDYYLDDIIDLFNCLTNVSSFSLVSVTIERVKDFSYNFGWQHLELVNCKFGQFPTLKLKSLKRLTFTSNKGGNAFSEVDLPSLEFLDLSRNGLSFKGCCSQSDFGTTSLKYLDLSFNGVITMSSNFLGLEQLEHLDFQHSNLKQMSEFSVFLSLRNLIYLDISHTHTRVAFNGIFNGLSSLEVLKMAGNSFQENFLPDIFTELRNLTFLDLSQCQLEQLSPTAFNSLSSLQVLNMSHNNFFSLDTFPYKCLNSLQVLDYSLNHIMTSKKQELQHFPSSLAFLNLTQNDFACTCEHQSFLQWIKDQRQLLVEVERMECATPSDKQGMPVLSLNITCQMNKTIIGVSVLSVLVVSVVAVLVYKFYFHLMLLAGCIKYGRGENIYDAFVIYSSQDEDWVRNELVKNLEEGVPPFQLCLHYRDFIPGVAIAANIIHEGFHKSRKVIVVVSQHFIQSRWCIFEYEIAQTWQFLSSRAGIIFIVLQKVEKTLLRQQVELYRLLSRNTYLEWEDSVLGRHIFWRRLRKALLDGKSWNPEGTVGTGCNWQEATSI

The term IC50 denotes the concentration that gives 50% inhibition. Compound `C[C@H]1CCC2C(=O)CCC(=O)C=C2C1` (stereo partly specified) had an IC50 in test [1] of 2.66 µM.

As for `CC(C)[C@H]1CCC2C(=O)CCC(=O)C=C21` (stereo partly specified), in test [1], inhibition was half-maximal at 2.82 µM (IC50).

On to `CCOC(=O)[C@H]1CCCC2C(=O)CC(=O)C=C21` (stereo partly specified), for which, in test [1], the IC50 was 1.54 µM.

In test [1], `O=C1C=C2C(CC[C@@H]2Cl)C(=O)C1` (stereo partly specified) returned an IC50 of 2.71 µM.

For the compound `CN(Cc1cnc2nc(N)nc(N)c2n1)c1ccc(C(=O)N[C@@H](CCC(=O)O)C(=O)O)cc1` [METHOTREXATE], the result in test [2], in [3], in [4], in [5], in test [6] and in test [7] was Active. For the same compound, the outcome in test [8], in test [10] and in test [11] was Active. In addition, the IC50 in [1] was determined as 1.04 µM. Moreover, the inhibition entry in test [9] and in [12] was “Active” each time.

`O=C1C=C2CCCCC2C(=O)CC1` (stereo unspecified) came in with an IC50 in test [1] of 1.85 µM.

Turning to `CC(C)[C@H]1CCC2C(=O)CC(=O)C=C21` (stereo partly specified), the half-maximal inhibitory concentration (IC50) in [1] was 2.53 µM.

In the case of `O=C1C=C2CC[C@@H](NC(=O)OCc3ccccc3)CC2C(=O)C1` (stereo partly specified), the outcome in test [2], in test [3], in test [4], in test [5], in [6] and in test [7] was Active. Further, the result in test [8], in [10] and in test [11] was Active. Besides, in [1], the IC50 turned out to be 0.56 µM. In addition, the inhibition entry in test [9] and in [12] was “Active” each time.

As to `CCCC1CCC([C@@H]2CCC3=CC(=O)CC(=O)C3C2)CC1` (stereo partly specified), half-maximal inhibition in [1] (IC50) required 0.73 µM.
